We go through ten compounds from patent publication US20140005163A1 (NOVARTIS AG, priority 2010, published 2014).

SMILES strings stand for the structures.

The subject of assay [1] is S6 Ribosomal Protein phosphorylation Ser235/236 in TSC1 null mouse embryo fibroblast (MEF) cells. Put plainly: Reverse protein array assay, S6 Ribosomal Protein phosphorylation Ser235/236 in TSC1 null MEF cells. The assay is classed as cell-based. The note with it: 1 h, pS6 ribosomal protein Ser235/236, 60 minutes incubation, read-out: p-S6 IC50. Put shortly:
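TSC1−/− MEFs, seeded and held ≥20 h at 37 °C/5% CO2, were exposed to 8-step serial compound dilutions (0.02% DMSO final; DMSO vehicle control) for 60 min at 37 °C. Cells were then lysed on ice for 10 min and lysates spotted onto reverse protein array chips.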

The next assay concerns the target T1, mTOR (Homo sapiens, UniProt P42345).
T1 construct: purchased Invitrogen Corporation (Carlsbad/CA, USA) PV4753
Put plainly: Biochemical assay for m-TOR by TR-FRET. The conditions noted are these: 8 μM ATP, 400 nM GFP-4EBP1, 0.5 nM mTOR. The gist of the method: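 TR-FRET read-out: Tb-labelled anti-p4EBP1 pThr46 antibody (0.5 nM), added in EDTA to stop the reaction, detects phosphorylated GFP-4EBP1 after 15 min. Kinase step used 0.5 nM mTOR, 400 nM substrate, 8 μM ATP, MnCl2-containing HEPES buffer pH 7.5, room temperature.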
(In general: Time-resolved FRET reads energy transfer from a long-lived donor to a nearby acceptor.)

Assay [2] relates to PKB Ser473 phosphorylation in Rat1-myr-HA-p110 beta cells. Put plainly: Reverse protein array assay, PKB Ser473 phosphorylation in Rat1-myr-p110 beta cells. It is filed as cell-based. The conditions noted are these: 0.5 h, pAkt Ser473, 30 minutes incubation, read-out: p-PKB IC50. Put shortly:
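After at least 20 h of culture, the p110 isoform-transfected Rat1 lines receive compound in an 8-step dilution series, keeping DMSO at 0.2%, for 30 minutes. Cells are then lysed and lysates arrayed on chips for fluorescence detection of Ser473-phosphorylated PKB.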

T1 sequence (P42345 1360-2549 limits assumed): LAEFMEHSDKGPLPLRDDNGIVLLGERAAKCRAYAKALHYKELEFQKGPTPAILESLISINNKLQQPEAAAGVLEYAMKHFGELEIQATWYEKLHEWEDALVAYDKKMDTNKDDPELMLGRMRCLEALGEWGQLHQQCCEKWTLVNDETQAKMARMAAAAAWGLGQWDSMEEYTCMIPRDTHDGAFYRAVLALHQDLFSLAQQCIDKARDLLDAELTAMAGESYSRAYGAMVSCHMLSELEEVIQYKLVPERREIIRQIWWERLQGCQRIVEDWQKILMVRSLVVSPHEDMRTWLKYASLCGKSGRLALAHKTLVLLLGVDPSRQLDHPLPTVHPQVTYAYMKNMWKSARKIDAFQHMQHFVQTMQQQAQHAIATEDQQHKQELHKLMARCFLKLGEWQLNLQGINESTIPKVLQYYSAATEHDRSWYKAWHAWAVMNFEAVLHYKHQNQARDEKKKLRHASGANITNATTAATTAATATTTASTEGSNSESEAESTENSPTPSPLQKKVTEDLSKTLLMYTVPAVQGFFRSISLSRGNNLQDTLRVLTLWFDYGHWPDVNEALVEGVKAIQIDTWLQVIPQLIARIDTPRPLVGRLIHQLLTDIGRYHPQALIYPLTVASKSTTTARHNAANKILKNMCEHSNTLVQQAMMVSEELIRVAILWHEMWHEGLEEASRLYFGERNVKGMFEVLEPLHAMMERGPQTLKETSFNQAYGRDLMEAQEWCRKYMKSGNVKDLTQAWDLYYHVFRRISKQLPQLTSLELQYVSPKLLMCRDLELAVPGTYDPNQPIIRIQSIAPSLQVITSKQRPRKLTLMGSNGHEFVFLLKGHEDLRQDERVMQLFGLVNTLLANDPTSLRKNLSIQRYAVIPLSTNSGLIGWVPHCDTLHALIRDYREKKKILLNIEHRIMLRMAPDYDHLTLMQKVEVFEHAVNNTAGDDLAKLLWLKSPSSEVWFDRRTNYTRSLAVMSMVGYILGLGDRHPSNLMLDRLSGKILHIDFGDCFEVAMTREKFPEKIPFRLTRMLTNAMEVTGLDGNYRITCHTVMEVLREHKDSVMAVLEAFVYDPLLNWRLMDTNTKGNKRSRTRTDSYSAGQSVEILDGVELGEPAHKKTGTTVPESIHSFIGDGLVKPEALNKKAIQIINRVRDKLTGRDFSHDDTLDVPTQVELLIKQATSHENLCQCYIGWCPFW

The IC50 is the midpoint of a concentration-inhibition curve. For `Cc1nn(C)cc1-n1c(=O)n(C)c2cnc3ccc(-c4cncc(OC5CCC5)c4)cc3c21` [Example 60.1, 8-(5-Cyclobutoxy-pyridin-3-yl)-1-(1,3-dimethyl-1H-pyrazol-4-yl)-3-methyl-1,3-dihydro-imidazo[4,5-c]quinolin-2-one], the IC50 was determined as 1 nM in assay [1], 5 nM on mTOR and 23 nM in assay [2].
As for `Cc1nn(C)c(C)c1-n1c(=O)n(C)c2cnc3ccc(-c4cnc(Cl)c(N)c4)cc3c21` [Example 152.3, 8-(5-Amino-6-chloro-pyridin-3-yl)-3-methyl-1-(1,3,5-trimethyl-1H-pyrazol-4-yl)-1,3-dihydro-imidazo[4,5-c]quinolin-2-one], the IC50 in assay [1] stood at 20 nM; at mTOR, 189 nM; in assay [2] it was 113 nM.
Taken in the same sequence, the figures for `Cc1nn(C)cc1-n1c(=O)n(C)c2cnc3ccc(-c4cncc(N(C)C5CCC5)c4)cc3c21` [Example 174, 8-[5-(Cyclobutyl-methyl-amino)-pyridin-3-yl]-1-(1,3-dimethyl-1H-pyrazol-4-yl)-3-methyl-1,3-dihydro-imidazo[4,5-c]quinolin-2-one] were 3 nM, 7 nM and 10 nM.
Taken in the same sequence, the figures for `CCOCc1cc(-c2ccc3ncc4c(c3c2)n(-c2cn(C)nc2Cl)c(=O)n4C)cnc1N` [Example 166.4, 8-(6-Amino-5-ethoxymethyl-pyridin-3-yl)-1-(3-chloro-1-methyl-1H-pyrazol-4-yl)-3-methyl-1,3-dihydro-imidazo[4,5-c]quinolin-2-one] were 1 nM, 16 nM and 11 nM.
Taken in the same sequence, the figures for `Cc1cc(-n2c(=O)n(C)c3cnc4ccc(-c5cnc(C)c(O)c5)cc4c32)n(C)n1` [Example 185.2, 1-(2,5-Dimethyl-2H-pyrazol-3-yl)-8-(5-hydroxy-6-methyl-pyridin-3-yl)-3-methyl-1,3-dihydro-imidazo[4,5-c]quinolin-2-one] were 32 nM, 19 nM and 88 nM.
With `CNc1ccc(-c2ccc3ncc4c(c3c2)n(-c2cn(C(C)C)nc2C)c(=S)n4C)cn1` [Example 241, 1-(1-isopropyl-3-methyl-1H-pyrazol-4-yl)-3-methyl-8-(6-(methylamino)pyridin-3-yl)-1H-imidazo[4,5-c]quinoline-2(3H)-thione], the figures for the IC50 (in assay [1]; on mTOR; in assay [2]) were below 0.5 nM, 79 nM and below 5 nM, respectively.
Taken in the same sequence, the figures for `Cc1cc(-n2c(=O)n(C)c3cnc4ccc(-c5cnc(F)c(N)c5)cc4c32)n(C)n1` [Example 149.3, 8-(5-Amino-6-fluoro-pyridin-3-yl)-1-(2,5-dimethyl-2H-pyrazol-3-yl)-3-methyl-1,3-dihydro-imidazo[4,5-c]quinolin-2-one] were 6.94 nM, 210 nM and 84 nM.
Taken in the same sequence, the figures for `CN(C)c1ccc(-c2ccc3ncc4c(c3c2)n(-c2cn(C)nc2Cl)c(=O)n4C)cn1` [Example 4.9, 1-(3-Chloro-1-methyl-1H-pyrazol-4-yl)-8-(6-dimethylamino-pyridin-3-yl)-3-methyl-1,3-dihydro-imidazo[4,5-c]quinolin-2-one] were 2 nM, 11 nM and 6 nM.
Taken in the same sequence, the figures for `Cc1nn(C)cc1-n1c(=O)n(C)c2cnc3ccc(-c4cccc(OC(C)C)c4)cc3c21` [Example 82, 1-(1,3-Dimethyl-1H-pyrazol-4-yl)-8-(3-isopropoxy-phenyl)-3-methyl-1,3-dihydro-imidazo[4,5-c]quinolin-2-one] were 17 nM, 27 nM and 284 nM.
With `CN(C)c1ncc(-c2ccc3ncc4c(c3c2)n(-c2cn(C)nc2Cl)c(=O)n4C)cn1` [Example 6.3, 1-(3-Chloro-1-methyl-1H-pyrazol-4-yl)-8-(2-dimethylamino-pyrimidin-5-yl)-3-methyl-1,3-dihydro-imidazo[4,5-c]quinolin-2-one], the figures for the IC50 (in assay [1]; at mTOR; in assay [2]) were 8 nM, 5 nM and 15 nM, respectively.
